Experimental data from PubChem BioAssay (NCI).
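Exposure lasted 48 hours, with cells grown in 96-well plates and compounds tested at five concentrations. TGI: total growth inhibition.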

Assays:
Experiment in all cases: DTP human tumour cell line panel, 48 h
NCI-H460 lung = tested on: NCI-H460 lung
OVCAR-8 ovarian = tested on: OVCAR-8 ovarian
A549 NSCLC = tested on: A549 NSCLC
MDA-MB-231 breast = tested on: MDA-MB-231 breast
TK-10 renal = tested on: TK-10 renal
UACC-257 melanoma = tested on: UACC-257 melanoma
RXF 393 renal = tested on: RXF 393 renal
HS 578T breast = tested on: HS 578T breast
SK-MEL-2 melanoma = tested on: SK-MEL-2 melanoma
HOP-62 NSCLC = tested on: HOP-62 NSCLC
K-562 leukemia = tested on: K-562 leukemia
SF-295 CNS = tested on: SF-295 CNS
SNB-75 CNS = tested on: SNB-75 CNS
NCI/ADR-RES ovarian = tested on: NCI/ADR-RES ovarian
HT29 colon = tested on: HT29 colon
HOP-92 NSCLC = tested on: HOP-92 NSCLC
MCF7 breast = tested on: MCF7 breast
CAKI-1 renal = tested on: CAKI-1 renal
SR leukemia = tested on: SR leukemia
U251 CNS = tested on: U251 CNS
HCT-116 colon = tested on: HCT-116 colon
M14 melanoma = tested on: M14 melanoma
SK-MEL-5 melanoma = tested on: SK-MEL-5 melanoma
HCT-15 colon = tested on: HCT-15 colon
SNB-19 CNS = tested on: SNB-19 CNS
NCI-H226 lung = tested on: NCI-H226 lung
786-0 renal = tested on: 786-0 renal
MDA-N = tested on: MDA-N
CCRF-CEM leukemia = tested on: CCRF-CEM leukemia
MALME-3M melanoma = tested on: MALME-3M melanoma
A498 renal = tested on: A498 renal
T-47D breast = tested on: T-47D breast
PC-3 prostate = tested on: PC-3 prostate
SK-OV-3 ovarian = tested on: SK-OV-3 ovarian
SF-539 CNS = tested on: SF-539 CNS
RPMI-8226 leukemia = tested on: RPMI-8226 leukemia
SK-MEL-28 melanoma = tested on: SK-MEL-28 melanoma
BT-549 breast = tested on: BT-549 breast
NCI-H522 lung = tested on: NCI-H522 lung
NCI-H23 lung = tested on: NCI-H23 lung
MDA-MB-435 = tested on: MDA-MB-435
ACHN renal = tested on: ACHN renal
KM12 colon = tested on: KM12 colon
OVCAR-3 ovarian = tested on: OVCAR-3 ovarian
SW-620 colon = tested on: SW-620 colon
COLO 205 colon = tested on: COLO 205 colon
HL-60(TB) leukemia = tested on: HL-60(TB) leukemia
UACC-62 melanoma = tested on: UACC-62 melanoma
EKVX NSCLC = tested on: EKVX NSCLC
IGROV1 ovarian = tested on: IGROV1 ovarian
SN12C renal = tested on: SN12C renal
LOX IMVI melanoma = tested on: LOX IMVI melanoma
OVCAR-5 ovarian = tested on: OVCAR-5 ovarian
UO-31 renal = tested on: UO-31 renal
SF-268 CNS = tested on: SF-268 CNS
MOLT-4 leukemia = tested on: MOLT-4 leukemia
OVCAR-4 ovarian = tested on: OVCAR-4 ovarian
DU-145 prostate = tested on: DU-145 prostate
HCC-2998 colon = tested on: HCC-2998 colon

`CC(=O)OC1CCC2(C)C(=CCC3C2CCC2(C)C3CC3OC4(CCC(C)CN4)C(C)C32)C1` (centres undefined) showed a TGI (NCI-H460 lung) greater than 100 µM, a TGI (OVCAR-8 ovarian) greater than 100 µM and a TGI (A549 NSCLC) greater than 100 µM. The TGI (MDA-MB-231 breast) was greater than 100 µM, the TGI (TK-10 renal) was greater than 100 µM and the TGI (UACC-257 melanoma) was greater than 100 µM. For the same compound, the TGI (RXF 393 renal) was greater than 100 µM, the TGI (HS 578T breast) was greater than 100 µM and the TGI (SK-MEL-2 melanoma) was greater than 100 µM. The TGI (HOP-62 NSCLC) was greater than 100 µM, the TGI (K-562 leukemia) was greater than 100 µM and the TGI (SF-295 CNS) was greater than 100 µM. For the same compound, the TGI (SNB-75 CNS) was greater than 100 µM, the TGI (NCI/ADR-RES ovarian) was greater than 100 µM and the TGI (HT29 colon) was greater than 100 µM. It also gave a TGI (HOP-92 NSCLC) greater than 100 µM, a TGI (MCF7 breast) greater than 100 µM and a TGI (CAKI-1 renal) greater than 100 µM. It also gave a TGI (SR leukemia) greater than 100 µM, a TGI (U251 CNS) greater than 100 µM and a TGI (HCT-116 colon) greater than 100 µM. For the same compound, the TGI (M14 melanoma) was greater than 100 µM, the TGI (SK-MEL-5 melanoma) was greater than 100 µM and the TGI (HCT-15 colon) was greater than 100 µM. It also gave a TGI (SNB-19 CNS) greater than 100 µM, a TGI (NCI-H226 lung) greater than 100 µM and a TGI (786-0 renal) greater than 100 µM. It also gave a TGI (MDA-N) greater than 100 µM, a TGI (CCRF-CEM leukemia) greater than 100 µM and a TGI (MALME-3M melanoma) greater than 100 µM. For the same compound, the TGI (A498 renal) was greater than 100 µM, the TGI (T-47D breast) was greater than 100 µM and the TGI (PC-3 prostate) was greater than 100 µM. The TGI (SK-OV-3 ovarian) was greater than 100 µM, the TGI (SF-539 CNS) was greater than 100 µM and the TGI (RPMI-8226 leukemia) was greater than 100 µM. The TGI (SK-MEL-28 melanoma) was greater than 100 µM, the TGI (BT-549 breast) was greater than 100 µM and the TGI (NCI-H522 lung) was greater than 100 µM. It also gave a TGI (NCI-H23 lung) greater than 100 µM, a TGI (MDA-MB-435) greater than 100 µM and a TGI (ACHN renal) greater than 100 µM. For the same compound, the TGI (KM12 colon) was greater than 100 µM, the TGI (OVCAR-3 ovarian) was greater than 100 µM and the TGI (SW-620 colon) was greater than 100 µM. It also gave a TGI (COLO 205 colon) greater than 100 µM, a TGI (HL-60(TB) leukemia) greater than 100 µM and a TGI (UACC-62 melanoma) greater than 100 µM. The TGI (EKVX NSCLC) was greater than 100 µM, the TGI (IGROV1 ovarian) was greater than 100 µM and the TGI (SN12C renal) was greater than 100 µM. The TGI (LOX IMVI melanoma) was greater than 100 µM, the TGI (OVCAR-5 ovarian) was greater than 100 µM and the TGI (UO-31 renal) was greater than 100 µM. The TGI (SF-268 CNS) was greater than 100 µM, the TGI (MOLT-4 leukemia) was greater than 100 µM and the TGI (OVCAR-4 ovarian) was greater than 100 µM. For the same compound, the TGI (DU-145 prostate) was greater than 100 µM.
`CN(C)Cc1c[nH]c2nc[nH]c(=O)c12` gave a TGI (NCI-H460 lung) of 61 µM, a TGI (OVCAR-8 ovarian) greater than 100 µM and a TGI (A549 NSCLC) greater than 100 µM. For the same compound, the TGI (MDA-MB-231 breast) was greater than 100 µM, the TGI (TK-10 renal) was greater than 100 µM and the TGI (UACC-257 melanoma) was 52 µM. It also gave a TGI (RXF 393 renal) of 45.9 µM, a TGI (HS 578T breast) greater than 100 µM and a TGI (SK-MEL-2 melanoma) greater than 100 µM. It also gave a TGI (HOP-62 NSCLC) greater than 100 µM, a TGI (K-562 leukemia) of 44.4 µM and a TGI (SF-295 CNS) greater than 100 µM. For the same compound, the TGI (SNB-75 CNS) was greater than 100 µM, the TGI (NCI/ADR-RES ovarian) was greater than 100 µM and the TGI (HT29 colon) was greater than 100 µM. For the same compound, the TGI (HOP-92 NSCLC) was 85.8 µM, the TGI (MCF7 breast) was 67.7 µM and the TGI (CAKI-1 renal) was greater than 100 µM. The TGI (SR leukemia) was 53.7 µM, the TGI (U251 CNS) was greater than 100 µM and the TGI (HCT-116 colon) was 51.5 µM. For the same compound, the TGI (M14 melanoma) was greater than 100 µM, the TGI (SK-MEL-5 melanoma) was greater than 100 µM and the TGI (HCT-15 colon) was greater than 100 µM. The TGI (SNB-19 CNS) was greater than 100 µM, the TGI (NCI-H226 lung) was greater than 100 µM and the TGI (786-0 renal) was 76.4 µM. For the same compound, the TGI (MDA-N) was 67.7 µM, the TGI (CCRF-CEM leukemia) was 51 µM and the TGI (MALME-3M melanoma) was greater than 100 µM. For the same compound, the TGI (A498 renal) was greater than 100 µM, the TGI (T-47D breast) was greater than 100 µM and the TGI (PC-3 prostate) was greater than 100 µM. The TGI (SK-OV-3 ovarian) was greater than 100 µM, the TGI (SF-539 CNS) was 48.9 µM and the TGI (RPMI-8226 leukemia) was 59.4 µM. For the same compound, the TGI (SK-MEL-28 melanoma) was greater than 100 µM, the TGI (BT-549 breast) was greater than 100 µM and the TGI (NCI-H522 lung) was greater than 100 µM. For the same compound, the TGI (NCI-H23 lung) was greater than 100 µM, the TGI (MDA-MB-435) was greater than 100 µM and the TGI (ACHN renal) was greater than 100 µM. It also gave a TGI (KM12 colon) greater than 100 µM, a TGI (OVCAR-3 ovarian) greater than 100 µM and a TGI (SW-620 colon) greater than 100 µM. For the same compound, the TGI (COLO 205 colon) was greater than 100 µM, the TGI (HL-60(TB) leukemia) was 42.4 µM and the TGI (UACC-62 melanoma) was 39.7 µM. It also gave a TGI (EKVX NSCLC) greater than 100 µM, a TGI (IGROV1 ovarian) greater than 100 µM and a TGI (SN12C renal) greater than 100 µM. For the same compound, the TGI (LOX IMVI melanoma) was 40.9 µM, the TGI (OVCAR-5 ovarian) was greater than 100 µM and the TGI (UO-31 renal) was greater than 100 µM. It also gave a TGI (SF-268 CNS) greater than 100 µM, a TGI (MOLT-4 leukemia) of 24.7 µM and a TGI (OVCAR-4 ovarian) greater than 100 µM. The TGI (DU-145 prostate) was 64.8 µM.
`COc1cc(C)cc2c1C(=O)C(NC(C)=O)=CC2=O` gave a TGI (NCI-H460 lung) greater than 100 µM, a TGI (OVCAR-8 ovarian) greater than 100 µM and a TGI (A549 NSCLC) greater than 100 µM. The TGI (MDA-MB-231 breast) was greater than 100 µM, the TGI (TK-10 renal) was greater than 100 µM and the TGI (UACC-257 melanoma) was greater than 100 µM. For the same compound, the TGI (RXF 393 renal) was greater than 100 µM, the TGI (HS 578T breast) was greater than 100 µM and the TGI (SK-MEL-2 melanoma) was greater than 100 µM. The TGI (HOP-62 NSCLC) was greater than 100 µM, the TGI (K-562 leukemia) was greater than 100 µM and the TGI (SF-295 CNS) was greater than 100 µM. For the same compound, the TGI (SNB-75 CNS) was greater than 100 µM, the TGI (NCI/ADR-RES ovarian) was greater than 100 µM and the TGI (HT29 colon) was greater than 100 µM. The TGI (HOP-92 NSCLC) was greater than 100 µM, the TGI (MCF7 breast) was greater than 100 µM and the TGI (CAKI-1 renal) was greater than 100 µM. The TGI (SR leukemia) was greater than 100 µM, the TGI (U251 CNS) was greater than 100 µM and the TGI (HCT-116 colon) was greater than 100 µM. The TGI (M14 melanoma) was greater than 100 µM, the TGI (SK-MEL-5 melanoma) was greater than 100 µM and the TGI (HCT-15 colon) was greater than 100 µM. For the same compound, the TGI (SNB-19 CNS) was greater than 100 µM, the TGI (NCI-H226 lung) was greater than 100 µM and the TGI (786-0 renal) was greater than 100 µM. The TGI (MDA-N) was 32.8 µM, the TGI (CCRF-CEM leukemia) was greater than 100 µM and the TGI (MALME-3M melanoma) was greater than 100 µM. For the same compound, the TGI (A498 renal) was greater than 100 µM, the TGI (T-47D breast) was greater than 100 µM and the TGI (PC-3 prostate) was greater than 100 µM. It also gave a TGI (SK-OV-3 ovarian) greater than 100 µM, a TGI (SF-539 CNS) greater than 100 µM and a TGI (RPMI-8226 leukemia) greater than 100 µM. It also gave a TGI (SK-MEL-28 melanoma) greater than 100 µM, a TGI (BT-549 breast) greater than 100 µM and a TGI (NCI-H522 lung) greater than 100 µM. It also gave a TGI (NCI-H23 lung) greater than 100 µM, a TGI (MDA-MB-435) of 31.3 µM and a TGI (ACHN renal) greater than 100 µM. For the same compound, the TGI (KM12 colon) was greater than 100 µM, the TGI (HCC-2998 colon) was greater than 100 µM and the TGI (OVCAR-3 ovarian) was greater than 100 µM. For the same compound, the TGI (SW-620 colon) was greater than 100 µM, the TGI (COLO 205 colon) was greater than 100 µM and the TGI (HL-60(TB) leukemia) was 53.2 µM. The TGI (UACC-62 melanoma) was greater than 100 µM, the TGI (EKVX NSCLC) was greater than 100 µM and the TGI (IGROV1 ovarian) was greater than 100 µM. The TGI (SN12C renal) was greater than 100 µM, the TGI (OVCAR-5 ovarian) was greater than 100 µM and the TGI (UO-31 renal) was greater than 100 µM. The TGI (SF-268 CNS) was greater than 100 µM, the TGI (MOLT-4 leukemia) was 88.7 µM and the TGI (OVCAR-4 ovarian) was 74.5 µM. It also gave a TGI (DU-145 prostate) greater than 100 µM.
